Measured values taken from PMC10447267, “Assessment of the potential of the MET inhibitor tepotinib to affect the pharmacokinetics of CYP3A4 and P-gp substrates” (Investigational New Drugs, 2023).

Experiments:
[1] = target: CYP3A4 (Homo sapiens, UniProt P08684); experiment: Study 1 (NCT03628339): effect of tepotinib on midazolam pharmacokinetics in healthy participants
Procedure: (§1) Study 1 (NCT03628339) and Study 2 (NCT03492437) were both Phase 1, open-label, single sequence, 2-period studies in 12 and 20 healthy participants, respectively (Fig. 1).
In Period 2 (Days 3 to 15), participants received 500 mg tepotinib, QD 30 min after starting a continental breakfast on Days 3 to 12. On Day 13, participants received the final dose of 500 mg tepotinib 30 min after starting a standardized breakfast identical to the one on Day 1. […] Blood samples for trough concentrations of tepotinib were collected on Days 11, 12 and 13.
(§2) Parameters included maximum plasma concentration (Cmax) and time to reach Cmax (Tmax) taken directly from the observed data. Area under the plasma concentration–time curve (AUC) from time 0 to the last measured concentration (AUC0-t), AUC over the dose interval (AUCtau) and AUC extrapolated to infinity (AUC0-∞) were calculated using the mixed log/linear trapezoidal rule. Terminal elimination half-life (t1/2) was calculated as ln(2)/λz where λz is the terminal rate constant. The primary pharmacokinetic parameters in both studies were Cmax, AUC0-t and AUC0-∞.
(§3) A similar statistical approach was taken for both studies. […] Point estimates and CIs were back-transformed to the original scale.

[2] = target: P-gp (Homo sapiens, UniProt P08183); experiment: Study 2 (NCT03492437): effect of tepotinib on dabigatran pharmacokinetics in healthy participants; assay type: in vivo
Procedure: as §1
In Period 2 (Days 4 to 14), participants received 500 mg tepotinib QD on Days 4 to 11. […] Blood samples for trough concentrations of tepotinib were collected on Days 9 and 10. Further blood samples for tepotinib and its metabolites were also collected up to 24 h postdose on Day 10.
as §2, §3

[3] = midazolam 7.5 mg single oral dose alone, N = 12, geometric mean (geometric CV%)
[4] = midazolam 7.5 mg with tepotinib 500 mg once daily, N = 12, geometric mean (geometric CV%)
[5] = tepotinib + dabigatran versus dabigatran alone

Sequence of P-gp (P08183 whole entry): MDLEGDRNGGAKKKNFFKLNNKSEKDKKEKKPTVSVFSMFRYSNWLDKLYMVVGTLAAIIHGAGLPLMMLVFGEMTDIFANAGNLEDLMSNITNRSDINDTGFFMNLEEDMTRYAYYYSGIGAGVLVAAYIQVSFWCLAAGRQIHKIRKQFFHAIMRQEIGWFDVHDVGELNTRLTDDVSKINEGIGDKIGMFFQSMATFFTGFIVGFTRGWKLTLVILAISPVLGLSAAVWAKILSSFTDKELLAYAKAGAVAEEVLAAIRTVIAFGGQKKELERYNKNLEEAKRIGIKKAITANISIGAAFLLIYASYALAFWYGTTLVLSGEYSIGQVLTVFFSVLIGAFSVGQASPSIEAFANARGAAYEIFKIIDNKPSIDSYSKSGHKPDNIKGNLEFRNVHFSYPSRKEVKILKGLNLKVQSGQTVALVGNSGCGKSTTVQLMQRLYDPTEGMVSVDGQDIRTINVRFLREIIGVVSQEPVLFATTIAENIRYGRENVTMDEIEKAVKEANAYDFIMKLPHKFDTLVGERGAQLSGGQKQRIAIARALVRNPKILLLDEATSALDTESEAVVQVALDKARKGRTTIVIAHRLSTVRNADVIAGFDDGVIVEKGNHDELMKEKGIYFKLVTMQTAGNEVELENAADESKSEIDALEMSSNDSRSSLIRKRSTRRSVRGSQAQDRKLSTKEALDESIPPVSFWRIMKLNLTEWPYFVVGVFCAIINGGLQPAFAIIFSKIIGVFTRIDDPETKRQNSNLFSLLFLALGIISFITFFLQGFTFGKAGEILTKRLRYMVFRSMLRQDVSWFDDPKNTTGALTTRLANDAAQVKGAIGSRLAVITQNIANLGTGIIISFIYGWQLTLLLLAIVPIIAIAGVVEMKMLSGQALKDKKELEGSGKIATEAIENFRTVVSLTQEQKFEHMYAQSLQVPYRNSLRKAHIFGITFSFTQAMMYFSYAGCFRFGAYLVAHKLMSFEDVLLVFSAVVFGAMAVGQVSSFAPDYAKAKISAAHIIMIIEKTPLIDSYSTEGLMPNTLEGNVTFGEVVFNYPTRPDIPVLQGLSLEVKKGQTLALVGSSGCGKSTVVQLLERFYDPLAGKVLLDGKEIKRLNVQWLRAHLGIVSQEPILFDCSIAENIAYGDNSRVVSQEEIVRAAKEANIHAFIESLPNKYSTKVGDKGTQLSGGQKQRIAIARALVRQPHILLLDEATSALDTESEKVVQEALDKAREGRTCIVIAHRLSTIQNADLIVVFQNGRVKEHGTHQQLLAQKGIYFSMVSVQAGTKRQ
Sequence of CYP3A4 (P08684 whole entry): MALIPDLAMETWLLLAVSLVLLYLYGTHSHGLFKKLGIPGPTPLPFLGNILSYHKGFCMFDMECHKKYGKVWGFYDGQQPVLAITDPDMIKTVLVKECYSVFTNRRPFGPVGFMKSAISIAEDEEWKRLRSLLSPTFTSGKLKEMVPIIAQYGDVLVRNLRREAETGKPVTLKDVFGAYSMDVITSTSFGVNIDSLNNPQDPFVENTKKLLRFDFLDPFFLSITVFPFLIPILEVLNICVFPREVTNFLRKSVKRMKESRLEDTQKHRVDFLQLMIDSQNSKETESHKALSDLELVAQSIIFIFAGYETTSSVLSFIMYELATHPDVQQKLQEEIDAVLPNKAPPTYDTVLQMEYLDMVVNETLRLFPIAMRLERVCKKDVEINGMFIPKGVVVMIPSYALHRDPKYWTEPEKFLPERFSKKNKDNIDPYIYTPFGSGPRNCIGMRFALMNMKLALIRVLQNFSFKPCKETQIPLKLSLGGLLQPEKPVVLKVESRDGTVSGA

SMILES: OCc1ncc2n1-c1ccc(Cl)cc1C(c1ccccc1F)=NC2 [1-hydroxymidazolam]
- AUC0-t [1, 3]: 30,589 (24) h*pg/mL
- AUC0-∞ [1, 3]: 31,269 (23) h*pg/mL
- Cmax [1, 3]: 14,909 (60) pg/mL
- t1/2 [1, 3]: 6.34 (30) h
- Tmax ([1]; midazolam 7.5 mg single oral dose alone, N = 12, median (min, max)): 0.500 (0.500, 2.00) h
- AUC0-t [1, 4]: 32,627 (25) h*pg/mL
- AUC0-∞ [1, 4]: 33,372 (24) h*pg/mL
- Cmax [1, 4]: 15,852 (35) pg/mL
- t1/2 [1, 4]: 6.90 (27) h
- Tmax ([1]; midazolam 7.5 mg with tepotinib 500 mg once daily, N = 12, median (min, max)): 0.508 (0.483, 2.00) h
- MR_AUC (metabolic ratio of 1-hydroxymidazolam AUC0-∞ and midazolam AUC0-∞) ([1]; midazolam alone, geometric mean (geometric CV%)): 0.286 (37) ratio
- MR_AUC (metabolic ratio of 1-hydroxymidazolam AUC0-∞ and midazolam AUC0-∞) ([1]; midazolam with tepotinib 500 mg once daily, geometric mean (geometric CV%)): 0.302 (34) ratio

SMILES: [H]/N=C(/N)c1ccc(NCc2nc3cc(C(=O)N(CCC(=O)O)c4ccccn4)ccc3n2C)cc1 [dabigatran]
- half-life ([2]; human, plasma, oral, read-out: Terminal half-life (converted)): ~8 h
- Exposure increase to dabigatran with tepotinib ([2]; tepotinib 500 mg QD orally): < 2 fold
- Increase of dabigatran area under the curve extrapolated to infinity by tepotinib ([2]; tepotinib 500 mg once daily): 51%
- Increase of dabigatran AUC by coadministration with tepotinib ([2]; tepotinib 500 mg once daily, compared to administration alone): ~50%
- Ratio of Geometric LS Mean (90% CI), AUC0-t [2, 5]: 151.38 (127.35, 179.93) %
- Ratio of Geometric LS Mean (90% CI), AUC0-∞ [2, 5]: 144.70 (122.89, 170.39) %

SMILES: Cc1ncc2n1-c1ccc(Cl)cc1C(c1ccccc1F)=NC2 [midazolam]
- Tmax ([1]; human, plasma, oral): 0.508 h
- half-life ([1]; human, plasma, oral): ~5 h
- AUC0-t ([1]; human, plasma, po, 7.5 mg): 108 ng·h/mL
- AUC(0-inf) ([1]; human, plasma, po, 7.5 mg): 109 ng·h/mL
- Cmax ([1]; human, plasma, po, 7.5 mg): 49.2 ng/mL
- Tmax ([1]; human, plasma, po, 7.5 mg): 0.5 h
- t1/2 [1, 4]: 4.81 (41) h
- Change in exposure to midazolam with tepotinib (in words) ([1]; tepotinib 500 mg QD orally): no change in exposure
